Data: ChEMBL document CHEMBL1201862, “PubChem BioAssay data set” (2004)
Active and inactive are the calls of the source.

Legend:
[1] = target: Scavenger receptor class B member 1 (Mus musculus, UniProt Q61009); experiment: mouse SR-BI DiI-HDL uptake blockers – ldlA[mSR-BI] cells, fluorescence, cherry pick, dose response (AID 493194); assay type: functional, cell-based;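 further: cellular uptake of fluorescent DiI-labeled HDL measured as cell fluorescence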
Protein Rev = Protein Rev (Human immunodeficiency virus type 1 group M subtype B (isolate HXB2)(HIV-1), UniProt P04618); experiment: blockers of HIV Rev/RRE RNA complex – biochemical, fluorescence polarization, HIV-1, dose response (AID 434976); set-up: species or system Human immunodeficiency virus 1
[2] = target: Female germline-specific tumor suppressor gld-1 (Caenorhabditis elegans, UniProt Q17339); experiment: blockers of GLD-1/TGE RNA complex formation – biochemical, fluorescence polarization, C. elegans, dose response (AID 2802);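 further: fluorescence polarization of labeled TGE RNA bound by purified gld-1 protein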
Genome polyprotein = Genome polyprotein (dengue virus type 2, UniProt P29990); experiment: flavivirus cap methylation enzyme inhibition – biochemical, confirmation dose response, primary screen (AID 588689); assay type: functional
Genome polyprotein, sequence (P29990 2492-3391 limits assumed): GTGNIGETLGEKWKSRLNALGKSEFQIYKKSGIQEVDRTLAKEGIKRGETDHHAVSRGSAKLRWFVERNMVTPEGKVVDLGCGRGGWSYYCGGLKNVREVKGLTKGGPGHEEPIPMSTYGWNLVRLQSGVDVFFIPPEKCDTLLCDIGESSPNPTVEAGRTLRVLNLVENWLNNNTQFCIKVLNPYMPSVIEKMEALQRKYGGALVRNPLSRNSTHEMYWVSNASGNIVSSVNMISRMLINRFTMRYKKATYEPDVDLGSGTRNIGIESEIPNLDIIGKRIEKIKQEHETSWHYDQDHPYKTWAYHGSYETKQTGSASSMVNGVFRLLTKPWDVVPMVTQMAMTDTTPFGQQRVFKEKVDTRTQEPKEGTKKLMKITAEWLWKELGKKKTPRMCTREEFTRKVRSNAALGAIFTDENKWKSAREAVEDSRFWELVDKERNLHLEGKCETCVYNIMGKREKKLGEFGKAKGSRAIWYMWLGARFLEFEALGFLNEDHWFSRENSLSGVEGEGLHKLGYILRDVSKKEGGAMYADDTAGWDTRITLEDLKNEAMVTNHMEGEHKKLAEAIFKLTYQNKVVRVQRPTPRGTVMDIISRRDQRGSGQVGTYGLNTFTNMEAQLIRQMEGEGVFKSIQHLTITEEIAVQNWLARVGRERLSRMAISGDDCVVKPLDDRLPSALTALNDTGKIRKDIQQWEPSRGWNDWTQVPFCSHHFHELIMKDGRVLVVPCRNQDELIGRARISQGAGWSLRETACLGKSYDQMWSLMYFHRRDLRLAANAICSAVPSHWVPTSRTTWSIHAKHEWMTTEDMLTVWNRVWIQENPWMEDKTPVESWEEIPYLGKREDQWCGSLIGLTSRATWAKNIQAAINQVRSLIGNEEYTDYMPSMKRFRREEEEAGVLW

Vero = experiment: viability of Vero cells under compound – cytotoxicity control for flavivirus capping enzyme inhibitors (AID 588742); assay type: functional; settings: Chlorocebus sabaeus
[3] = DRD BJ cell killing, Ras synthetic lethality – DRD BJ fibroblasts, HRASV12, dry powder, dose response (AID 493049); assay type: functional, cell-based
[4] = BJeHLT cell viability loss – BJeHLT cells, dry powder, counter-screen for Ras selective lethality project, dose response (AID 493052); assay type: functional, cell-based; settings: Homo sapiens
[5] = HRAS-V12 fibroblast viability reduction – cell-based, Alamar Blue, dry powder, Ras selective lethality project, primary screen (AID 493045); assay type: functional; settings: BJeLR
[6] = BJeH cell viability loss – BJeH cells, dry powder, counter-screen for Ras selective lethality project, dose response (AID 493054); assay type: functional, cell-based
[7] = protection from phage-mediated lysis, alamar blue read-out – E. coli UTI89, K1F phage, bacterial capsule biogenesis inhibitors (AID 488966); assay type: functional
cells = assay type: functional
Beta-galactosidase [8] = target: T1, Beta-galactosidase (Escherichia coli, UniProt Q8VNN2); experiment: detection-enzyme interference by beta-gal modulators – biochemical, E. coli enzyme, set 3, artefact control for CCR6 antagonist project, dose response (AID 504712); assay type: functional
T1 sequence (Q8VNN2 whole entry): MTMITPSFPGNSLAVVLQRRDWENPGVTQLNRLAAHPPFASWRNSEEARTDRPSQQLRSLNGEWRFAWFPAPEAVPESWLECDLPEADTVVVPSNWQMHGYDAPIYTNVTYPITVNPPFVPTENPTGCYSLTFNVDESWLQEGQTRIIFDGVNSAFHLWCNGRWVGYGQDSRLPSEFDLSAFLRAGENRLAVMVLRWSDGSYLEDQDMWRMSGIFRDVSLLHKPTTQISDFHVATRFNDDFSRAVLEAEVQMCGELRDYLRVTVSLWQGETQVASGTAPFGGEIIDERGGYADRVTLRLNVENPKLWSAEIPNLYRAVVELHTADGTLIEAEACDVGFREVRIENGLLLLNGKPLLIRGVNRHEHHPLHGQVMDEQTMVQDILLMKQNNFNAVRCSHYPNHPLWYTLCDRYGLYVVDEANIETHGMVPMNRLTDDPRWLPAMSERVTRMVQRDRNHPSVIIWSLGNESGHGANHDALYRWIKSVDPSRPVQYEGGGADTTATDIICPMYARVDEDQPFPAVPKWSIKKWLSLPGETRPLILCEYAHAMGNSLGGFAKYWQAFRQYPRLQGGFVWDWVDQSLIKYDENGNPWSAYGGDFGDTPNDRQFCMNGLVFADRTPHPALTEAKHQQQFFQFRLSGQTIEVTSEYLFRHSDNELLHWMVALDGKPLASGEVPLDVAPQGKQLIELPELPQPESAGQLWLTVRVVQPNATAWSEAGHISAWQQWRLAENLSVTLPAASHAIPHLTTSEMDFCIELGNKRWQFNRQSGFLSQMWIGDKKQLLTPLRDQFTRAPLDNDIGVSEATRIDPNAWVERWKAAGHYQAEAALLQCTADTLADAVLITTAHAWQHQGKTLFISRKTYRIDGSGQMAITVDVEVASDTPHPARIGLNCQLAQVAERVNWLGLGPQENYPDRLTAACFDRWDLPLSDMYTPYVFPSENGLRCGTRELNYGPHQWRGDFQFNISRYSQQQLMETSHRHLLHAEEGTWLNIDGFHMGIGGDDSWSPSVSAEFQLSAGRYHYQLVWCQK

[9] = target: T2, Kappa-type opioid receptor (Homo sapiens, UniProt P41145); assay type: functional
T2 sequence (P41145 whole entry): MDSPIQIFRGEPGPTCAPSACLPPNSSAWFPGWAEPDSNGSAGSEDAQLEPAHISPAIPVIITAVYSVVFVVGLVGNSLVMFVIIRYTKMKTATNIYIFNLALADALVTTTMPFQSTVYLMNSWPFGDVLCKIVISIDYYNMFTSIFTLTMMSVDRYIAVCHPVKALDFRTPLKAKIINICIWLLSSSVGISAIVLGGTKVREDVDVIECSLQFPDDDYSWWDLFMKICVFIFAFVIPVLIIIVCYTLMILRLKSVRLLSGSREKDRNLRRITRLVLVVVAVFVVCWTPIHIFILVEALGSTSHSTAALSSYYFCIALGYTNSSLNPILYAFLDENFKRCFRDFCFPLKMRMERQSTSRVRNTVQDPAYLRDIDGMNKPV

[10] = target: T3, Corticotropin-releasing factor receptor 2/Corticotropin-releasing factor-binding protein (Homo sapiens, UniProt P24387+Q13324); experiment: activators of CRF receptor 2 with binding protein – uHTS hits, confirmation (AID 602473); assay type: functional; settings: read-out: EC50_Mean
T3 sequence (Q13324 whole entry): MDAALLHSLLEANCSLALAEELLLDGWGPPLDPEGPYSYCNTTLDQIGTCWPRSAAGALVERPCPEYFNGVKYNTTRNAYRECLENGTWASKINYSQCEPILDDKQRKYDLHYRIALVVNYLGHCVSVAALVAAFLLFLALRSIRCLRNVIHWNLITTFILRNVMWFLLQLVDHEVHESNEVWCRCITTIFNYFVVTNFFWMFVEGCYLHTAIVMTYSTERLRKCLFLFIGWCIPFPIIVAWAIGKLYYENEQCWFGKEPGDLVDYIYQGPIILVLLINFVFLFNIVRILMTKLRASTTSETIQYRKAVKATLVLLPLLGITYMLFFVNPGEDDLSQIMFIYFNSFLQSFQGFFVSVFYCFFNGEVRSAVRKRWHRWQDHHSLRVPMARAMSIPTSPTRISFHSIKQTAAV
T3 sequence (P24387 whole entry): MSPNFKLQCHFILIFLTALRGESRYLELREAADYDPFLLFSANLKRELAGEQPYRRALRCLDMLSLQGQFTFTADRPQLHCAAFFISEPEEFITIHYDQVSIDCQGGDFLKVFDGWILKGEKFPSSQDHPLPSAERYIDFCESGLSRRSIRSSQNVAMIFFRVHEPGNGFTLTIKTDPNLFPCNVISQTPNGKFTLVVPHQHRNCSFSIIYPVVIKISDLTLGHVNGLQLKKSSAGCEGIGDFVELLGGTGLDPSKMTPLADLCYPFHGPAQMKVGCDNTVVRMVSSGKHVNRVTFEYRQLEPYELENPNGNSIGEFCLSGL

[11] = target: T2, Kappa-type opioid receptor; assay type: functional; remark: listed apart in the source
Beta-galactosidase [12] = target: T1, Beta-galactosidase; assay type: functional
Wee1-like protein kinase = Wee1-like protein kinase (Homo sapiens, UniProt P30291); experiment: HeLa cell cycle G2/M accumulation – FACS, mechanism study for Wee1 degradation inhibitor project, late-stage follow-up, panel member Wee1 Degradation (AID 2088)
Wee1-like protein kinase, sequence (P30291 whole entry): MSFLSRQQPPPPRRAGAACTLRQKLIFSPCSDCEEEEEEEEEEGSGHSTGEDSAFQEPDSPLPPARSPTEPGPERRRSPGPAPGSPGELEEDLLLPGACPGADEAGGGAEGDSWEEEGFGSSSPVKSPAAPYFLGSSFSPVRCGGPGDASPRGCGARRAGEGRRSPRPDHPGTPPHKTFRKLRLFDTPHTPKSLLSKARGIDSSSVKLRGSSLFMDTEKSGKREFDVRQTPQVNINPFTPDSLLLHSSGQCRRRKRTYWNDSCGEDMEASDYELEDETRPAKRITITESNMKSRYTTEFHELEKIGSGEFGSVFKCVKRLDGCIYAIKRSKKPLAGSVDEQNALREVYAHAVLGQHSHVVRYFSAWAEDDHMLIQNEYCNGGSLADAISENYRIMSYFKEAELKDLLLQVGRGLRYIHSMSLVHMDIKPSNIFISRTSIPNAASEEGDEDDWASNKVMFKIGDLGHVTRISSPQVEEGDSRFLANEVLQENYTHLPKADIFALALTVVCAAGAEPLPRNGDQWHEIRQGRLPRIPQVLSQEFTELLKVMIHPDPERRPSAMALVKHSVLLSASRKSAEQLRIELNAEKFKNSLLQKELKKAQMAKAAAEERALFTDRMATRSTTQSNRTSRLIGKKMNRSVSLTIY

[13] = target: G2/mitotic-specific cyclin-B1 (Homo sapiens, UniProt P14635); experiment: HeLa cell cycle G2/M accumulation – FACS, mechanism study for Wee1 degradation inhibitor project, late-stage follow-up, panel member Cyclin B Degradation (AID 2088)
G2/mitotic-specific cyclin-B1, sequence (P14635 whole entry): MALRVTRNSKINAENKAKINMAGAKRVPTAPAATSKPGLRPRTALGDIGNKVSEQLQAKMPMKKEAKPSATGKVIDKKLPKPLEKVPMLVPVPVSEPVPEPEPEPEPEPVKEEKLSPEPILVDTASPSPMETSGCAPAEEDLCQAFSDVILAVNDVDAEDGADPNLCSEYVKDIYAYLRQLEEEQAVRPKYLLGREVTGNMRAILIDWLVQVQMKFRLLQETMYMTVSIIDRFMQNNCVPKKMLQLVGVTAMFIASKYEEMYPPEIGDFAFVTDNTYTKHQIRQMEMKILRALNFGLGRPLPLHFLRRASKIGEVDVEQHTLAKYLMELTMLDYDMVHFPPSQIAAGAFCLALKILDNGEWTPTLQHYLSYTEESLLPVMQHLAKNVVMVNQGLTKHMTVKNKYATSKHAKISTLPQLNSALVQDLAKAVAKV

[14] = target: Cyclin-dependent kinase 5/CDK5 activator 1 (Homo sapiens, UniProt Q00535); experiment: blockade of human CDK5 activity – biochemical, cherry-picked samples, set 2, dose response (AID 504545)
[15] = ADP-Glo luciferase signal interference – biochemical, luminescence, cherry-picked samples, set 2, artefact control for CDK5 inhibitor project, dose response (AID 504546); assay type: functional, cell-based
[16] = target: Glucose-6-phosphate 1-dehydrogenase (Homo sapiens, UniProt P11413); experiment: inhibition of Homo sapiens G6PD, dose series – biochemical, fluorescence, selectivity assay for P. falciparum G6PD inhibitor project, dose response (AID 504792); assay type: functional
Glucose-6-phosphate 1-dehydrogenase, sequence (P11413 whole entry): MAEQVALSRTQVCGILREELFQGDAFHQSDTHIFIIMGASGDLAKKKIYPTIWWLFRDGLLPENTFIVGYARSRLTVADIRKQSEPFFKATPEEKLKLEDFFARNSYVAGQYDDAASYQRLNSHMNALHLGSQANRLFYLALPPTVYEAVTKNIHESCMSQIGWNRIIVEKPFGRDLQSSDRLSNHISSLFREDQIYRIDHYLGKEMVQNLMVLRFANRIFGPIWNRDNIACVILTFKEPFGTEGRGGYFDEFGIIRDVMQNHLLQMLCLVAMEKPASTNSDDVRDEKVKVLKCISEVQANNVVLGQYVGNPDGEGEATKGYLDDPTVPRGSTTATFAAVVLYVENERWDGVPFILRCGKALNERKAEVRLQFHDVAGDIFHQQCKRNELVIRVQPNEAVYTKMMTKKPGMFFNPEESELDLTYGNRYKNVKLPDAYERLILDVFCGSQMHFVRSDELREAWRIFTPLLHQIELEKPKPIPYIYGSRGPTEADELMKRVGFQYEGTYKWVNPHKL

[17] = target: Heat shock protein HSP 90-alpha (Homo sapiens, UniProt P07900); assay type: functional, organism-based
[18] = target: T4, Histone-lysine N-methyltransferase NSD2 (Homo sapiens, UniProt O96028); assay type: biochemical
T4 sequence (O96028 whole entry): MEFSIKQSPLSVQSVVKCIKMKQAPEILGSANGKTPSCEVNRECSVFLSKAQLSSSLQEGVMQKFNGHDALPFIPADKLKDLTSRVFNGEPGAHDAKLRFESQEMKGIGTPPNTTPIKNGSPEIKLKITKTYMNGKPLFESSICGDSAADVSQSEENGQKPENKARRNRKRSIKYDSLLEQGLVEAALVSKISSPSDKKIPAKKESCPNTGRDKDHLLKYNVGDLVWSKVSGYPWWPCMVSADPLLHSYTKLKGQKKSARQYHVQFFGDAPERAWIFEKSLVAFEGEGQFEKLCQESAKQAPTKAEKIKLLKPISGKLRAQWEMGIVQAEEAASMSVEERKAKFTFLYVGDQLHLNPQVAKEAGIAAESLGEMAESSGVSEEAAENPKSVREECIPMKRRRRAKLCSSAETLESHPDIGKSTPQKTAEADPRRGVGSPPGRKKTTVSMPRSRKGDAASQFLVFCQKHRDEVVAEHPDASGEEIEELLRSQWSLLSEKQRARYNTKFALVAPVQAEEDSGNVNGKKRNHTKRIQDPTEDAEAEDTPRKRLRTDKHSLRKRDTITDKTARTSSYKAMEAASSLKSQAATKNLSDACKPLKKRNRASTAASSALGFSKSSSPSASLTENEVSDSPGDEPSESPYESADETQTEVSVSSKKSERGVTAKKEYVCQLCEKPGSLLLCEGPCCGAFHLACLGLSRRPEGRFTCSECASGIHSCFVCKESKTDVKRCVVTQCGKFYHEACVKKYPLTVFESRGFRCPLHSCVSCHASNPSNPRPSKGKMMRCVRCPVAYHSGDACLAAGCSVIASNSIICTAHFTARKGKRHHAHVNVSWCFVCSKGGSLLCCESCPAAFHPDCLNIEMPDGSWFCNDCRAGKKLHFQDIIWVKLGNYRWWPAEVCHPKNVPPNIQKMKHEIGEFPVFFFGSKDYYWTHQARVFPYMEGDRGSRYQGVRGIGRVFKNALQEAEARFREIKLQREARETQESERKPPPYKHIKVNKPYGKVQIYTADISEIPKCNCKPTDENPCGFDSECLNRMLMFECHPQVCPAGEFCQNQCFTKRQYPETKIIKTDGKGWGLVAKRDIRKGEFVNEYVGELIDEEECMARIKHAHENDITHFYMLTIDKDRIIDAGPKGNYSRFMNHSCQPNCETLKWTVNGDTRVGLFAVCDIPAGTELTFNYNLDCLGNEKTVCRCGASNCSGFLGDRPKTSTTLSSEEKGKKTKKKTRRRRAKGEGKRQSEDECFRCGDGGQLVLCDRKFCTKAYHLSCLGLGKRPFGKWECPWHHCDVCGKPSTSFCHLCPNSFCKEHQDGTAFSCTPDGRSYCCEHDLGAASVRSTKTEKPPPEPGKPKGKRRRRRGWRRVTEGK

Beta Lactamase = Beta Lactamase (Pseudomonas aeruginosa, UniProt Q932Y6); experiment: BLA reporter interference, concentration series – BLA reporter cells, FRET fluorescence, artefact control for NOD2-RIPK2 interaction inhibitor project, dose response (AID 651552); assay type: functional, cell-based
Beta Lactamase, sequence (Q932Y6 whole entry, the tested form may be a part): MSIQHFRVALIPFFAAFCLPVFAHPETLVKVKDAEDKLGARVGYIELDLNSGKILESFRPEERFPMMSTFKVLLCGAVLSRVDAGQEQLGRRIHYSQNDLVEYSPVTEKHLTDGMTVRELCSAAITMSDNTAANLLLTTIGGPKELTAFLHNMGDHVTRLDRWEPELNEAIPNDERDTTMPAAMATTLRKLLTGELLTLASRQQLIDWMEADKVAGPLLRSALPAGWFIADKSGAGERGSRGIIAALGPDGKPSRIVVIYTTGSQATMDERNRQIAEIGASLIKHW

[19] = Fluorescence-based cell-based high throughput dose response assay for inhibitors of the interaction of nucleotide-binding oligomerization domain containing 2 (NOD2) and the receptor-interacting serine-threonine kinase 2 (RIPK2).; assay type: functional; settings: Homo sapiens
[20] = HGIII-sPLA2 enzyme inhibition potency – biochemical, QFRET, IC50, dose response (AID 743457);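 further: green fluorescence rise as the enzyme cleaves BODIPY PC-A2 in liposomes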
Nonstructural protein 1 = Nonstructural protein 1 (Influenza A virus, UniProt Q194T2); assay type: functional, Influenza A virus (A/California/07/2009(H1N1))
Nonstructural protein 1, sequence (Q194T2 whole entry): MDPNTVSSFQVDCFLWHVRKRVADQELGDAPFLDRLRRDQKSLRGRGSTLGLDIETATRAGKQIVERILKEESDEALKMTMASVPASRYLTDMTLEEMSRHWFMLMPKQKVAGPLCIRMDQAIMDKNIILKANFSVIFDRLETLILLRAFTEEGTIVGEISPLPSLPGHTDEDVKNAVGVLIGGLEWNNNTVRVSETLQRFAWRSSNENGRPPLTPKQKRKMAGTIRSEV

[21] = target: T5, Rac GTPase-activating protein 1 (Homo sapiens, UniProt Q9H0H5); experiment: blockers of MgcRacGAP-driven Rac1 GTP hydrolysis – biochemical, ADP Hunter fluorescence, primary and confirmatory, confirmation (AID 624330); assay type: functional
T5 sequence (Q9H0H5 whole entry): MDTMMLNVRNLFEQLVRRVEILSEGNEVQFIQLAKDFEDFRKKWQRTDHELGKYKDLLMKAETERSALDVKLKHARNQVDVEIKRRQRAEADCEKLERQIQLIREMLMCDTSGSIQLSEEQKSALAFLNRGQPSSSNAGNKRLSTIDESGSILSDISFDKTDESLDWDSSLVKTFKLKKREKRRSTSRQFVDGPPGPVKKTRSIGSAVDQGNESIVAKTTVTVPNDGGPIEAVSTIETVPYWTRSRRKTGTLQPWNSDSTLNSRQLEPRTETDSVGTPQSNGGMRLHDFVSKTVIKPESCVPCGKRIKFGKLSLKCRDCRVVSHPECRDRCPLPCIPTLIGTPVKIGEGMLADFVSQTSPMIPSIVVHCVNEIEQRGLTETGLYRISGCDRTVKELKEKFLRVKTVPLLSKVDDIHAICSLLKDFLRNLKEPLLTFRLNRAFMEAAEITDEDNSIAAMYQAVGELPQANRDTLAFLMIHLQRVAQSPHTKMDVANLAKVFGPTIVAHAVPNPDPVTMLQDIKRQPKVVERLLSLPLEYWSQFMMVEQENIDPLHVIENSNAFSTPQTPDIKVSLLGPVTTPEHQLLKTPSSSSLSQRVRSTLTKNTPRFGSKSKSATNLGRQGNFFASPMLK

[22] = target: Matrix metalloproteinase-14 (Homo sapiens, UniProt P50281); experiment: Dose Response confirmation of uHTS hits for a small molecule inhibitors of MT1-MMP activation in a fluorescence assay set 1.; assay type: functional
[23] = viability loss in HeLa cells – cytotoxicity control for MgcRacGAP inhibitor project, dose response (AID 624300); assay type: functional
[24] = alpha-synuclein stem-loop luciferase translation blockers – H4 neuroglioma cells, luminescence, confirmation (AID 1988); assay type: functional, cell-based
[25] = Luminescence Cell-Based Dose Response HTS to Identify Inhibitors of 5'UTR Stem-Loop Driven Prion Protein mRNA Translation in H4 Neuroglioblastoma Cells. [Related pubchem assays: 1827 (Project Summary), 1813 (Primary HTS)]; assay type: functional
[26] = HEK-293T cell viability reduction – luminescence, B-cell screen hits, cytotoxicity control for BCR NF-kB inhibitor project, dose response (AID 489021); assay type: functional, cell-based;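 further: HEK-293T cells carrying an NF-kB luciferase reporter; cells exposed to compound for about 14 hours before viability readout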
[27] = luciferase reporter signal suppression in cells – H4 neuroglioma cells, luminescence, dose response (AID 1990); assay type: functional, cell-based

Scavenger receptor class B member 1, sequence (Q61009 whole entry): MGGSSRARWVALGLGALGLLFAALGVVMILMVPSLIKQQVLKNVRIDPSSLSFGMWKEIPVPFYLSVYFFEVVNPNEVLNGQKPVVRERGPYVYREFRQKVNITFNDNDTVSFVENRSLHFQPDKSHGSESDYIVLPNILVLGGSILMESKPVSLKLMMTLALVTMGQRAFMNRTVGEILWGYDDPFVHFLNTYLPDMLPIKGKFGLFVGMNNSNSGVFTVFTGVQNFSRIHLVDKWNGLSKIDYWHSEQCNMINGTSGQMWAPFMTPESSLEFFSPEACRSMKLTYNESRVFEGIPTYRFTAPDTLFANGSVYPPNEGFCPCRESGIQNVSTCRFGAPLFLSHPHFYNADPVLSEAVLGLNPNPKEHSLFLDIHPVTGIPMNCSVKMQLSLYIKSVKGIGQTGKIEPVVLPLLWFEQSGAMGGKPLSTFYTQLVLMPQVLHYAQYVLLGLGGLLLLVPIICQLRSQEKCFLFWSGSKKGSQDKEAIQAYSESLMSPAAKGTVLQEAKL

CCOc1ccc(NS(=O)(=O)c2ccc(C(=O)NNC(=O)c3ccccc3O)cc2)cc1
AC50 [1]: 11.1 µM (active)

CCOc1ccc2nc(N3CCCN(C(=O)Nc4ccccc4C)CC3)c(C#N)cc2c1
IC50 (Protein Rev): 20.3 µM (not active)
IC50 [2]: > 59.7 µM (inactive)
IC50 (Genome polyprotein): 38.7 µM (active)
CC50 (Vero): > 40 µM (active)

COc1ccc(N(CC(=O)NCCc2ccccc2)C(=O)CCl)cc1Cl
AC50 [3]: 223 nM (active)
AC50 [4]: 531 nM (active)
AC50 [5]: 231 nM (active)
AC50 [6]: 793 nM (active)

CCc1ccc(NC(=O)C(=O)NNC(=O)c2cccc(OC)c2)cc1
IC50 [7]: > 75 µM (active)
IC50 (cells): 10.5 µM (active)

Cc1ccc(-n2[nH]c(C)c(/C=N/N3C(=O)c4cccc5cccc(c45)C3=O)c2=O)cc1
IC50 (Beta-galactosidase [8]): > 66.6 µM (inactive)
IC50 [9]: > 32 µM
EC50 [10]: 3.95 µM (active)
IC50 [11]: 6.32 µM (active)
EC50 (Beta-galactosidase [12]): > 31.5 µM (inactive)

Cc1cc(O)nc(-n2nc(C)cc2NC(=O)Cc2ccc(F)cc2)n1
EC50 (Wee1-like protein kinase): > 49.7 µM (inactive)
EC50 [13]: > 49.7 µM (inactive)

CCN(CC)c1ccc(C(=C2C=CC(=[N+](CC)CC)C=C2)c2ccc(N(CC)CC)cc2)cc1
AC50 [14]: 12.3 µM (active)
AC50 [15]: 31.9 µM (active)
IC50 [16]: 44.7 µM (inactive)
AC50 [17]: 570 nM (active)
AC50 [18]: 1.01 µM (active)
IC50 (Beta Lactamase): 10.8 µM (inactive)
IC50 [19]: 10.9 µM (inactive)
IC50 [20]: > 40.6 µM (inactive)
IC50 (Nonstructural protein 1): 774 nM (active)
IC50 [21]: 20.6 µM (active)
IC50 [22]: > 80 µM (inactive)
CC50 [23]: 4.15 µM (active)

CCCCOc1ccc(NC(=O)C(=O)NCCCn2ccnc2)cc1
EC50 [24]: 10.6 µM (active)
EC50 [25]: 18.5 µM (active)
IC50 [26]: > 80 µM (inactive)
EC50 [27]: 13.9 µM (active)
